From the supplement of paper PMC11424490

What was measured:
[1] = test system: SW837; experiment: combination cScore with adagrasib (Bliss gap around IC50) (%PoC); higher = stronger additive effect
Experimental: (§1)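 Combination screen of 179 inhibitors with the KRAS G12C inhibitor adagrasib (MRTX849) in dose matrices, CellTiter-Glo readout in NCI-H2122 (72 h), SW837 (144 h) and NCI-H358 cells. The cScore is the mean Bliss-independence gap (expected minus observed viability, in %PoC) over a 3x3 field around the IC50s of both drugs. Positive means additive, and >~10 is stated as clear additive.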

[2] = test system: NCI-H2122; experiment: as above
Experimental: as §1

SMILES | combination cScore with adagrasib [1] | combination cScore with adagrasib [2]
Nc1nc(Cl)nc2c1ncn2[C@@H]1O[C@H](CO)[C@@H](O)[C@@H]1F [Clofarabine] + C=C(F)C(=O)N1CCN(c2nc(OC[C@@H]3CCCN3C)nc3c2CCN(c2cccc4cccc(Cl)c24)C3)C[C@@H]1CC#N [adagrasib] | 1.46 | -3.89
O=C(c1ccc(F)c(F)c1Nc1ccc(I)cc1F)N1CC(O)([C@@H]2CCCCN2)C1 [Cobimetinib] + C=C(F)C(=O)N1CCN(c2nc(OC[C@@H]3CCCN3C)nc3c2CCN(c2cccc4cccc(Cl)c24)C3)C[C@@H]1CC#N [adagrasib] | 13.2 | 2.78
Nc1ccn([C@@H]2O[C@H](CO)[C@@H](O)[C@@H]2O)c(=O)n1 [Cytarabin] + C=C(F)C(=O)N1CCN(c2nc(OC[C@@H]3CCCN3C)nc3c2CCN(c2cccc4cccc(Cl)c24)C3)C[C@@H]1CC#N [adagrasib] | 6.75 | -0.23
CC(C)(C)c1nc(-c2cccc(NS(=O)(=O)c3c(F)cccc3F)c2F)c(-c2ccnc(N)n2)s1 [Dabrafenib] + C=C(F)C(=O)N1CCN(c2nc(OC[C@@H]3CCCN3C)nc3c2CCN(c2cccc4cccc(Cl)c24)C3)C[C@@H]1CC#N [adagrasib] | -0.35 | -9.32
Nc1ncn([C@H]2C[C@H](O)[C@@H](CO)O2)c(=O)n1 [Decitabine] + C=C(F)C(=O)N1CCN(c2nc(OC[C@@H]3CCCN3C)nc3c2CCN(c2cccc4cccc(Cl)c24)C3)C[C@@H]1CC#N [adagrasib] | -0.47 | 3.82
C[C@@H]1C[C@H]2[C@@H]3CCC4=CC(=O)C=C[C@]4(C)[C@@]3(F)[C@@H](O)C[C@]2(C)[C@@]1(O)C(=O)CO [Dexamethasone] + C=C(F)C(=O)N1CCN(c2nc(OC[C@@H]3CCCN3C)nc3c2CCN(c2cccc4cccc(Cl)c24)C3)C[C@@H]1CC#N [adagrasib] | -0.93 | -4.66
CC(=O)O[C@@]12CO[C@@H]1C[C@H](O)[C@@]1(C)C(=O)[C@H](O)C3=C(C)[C@@H](OC(=O)[C@H](O)[C@@H](NC(=O)OC(C)(C)C)c4ccccc4)C[C@@](O)([C@@H](OC(=O)c4ccccc4)[C@H]21)C3(C)C [Docetaxel] + C=C(F)C(=O)N1CCN(c2nc(OC[C@@H]3CCCN3C)nc3c2CCN(c2cccc4cccc(Cl)c24)C3)C[C@@H]1CC#N [adagrasib] | 0.74 | 3.05
COc1cccc2c1C(=O)c1c(O)c3c(c(O)c1C2=O)C[C@@](O)(C(=O)CO)C[C@@H]3O[C@H]1C[C@H](N)[C@H](O)[C@H](C)O1 [Doxorubicin] + C=C(F)C(=O)N1CCN(c2nc(OC[C@@H]3CCCN3C)nc3c2CCN(c2cccc4cccc(Cl)c24)C3)C[C@@H]1CC#N [adagrasib] | 4.49 | -0.16
CN(NC(=O)CC(=O)NN(C)C(=S)c1ccccc1)C(=S)c1ccccc1 [Elesclomol] + C=C(F)C(=O)N1CCN(c2nc(OC[C@@H]3CCCN3C)nc3c2CCN(c2cccc4cccc(Cl)c24)C3)C[C@@H]1CC#N [adagrasib] | 6.34 | 2.19
CNC(=O)c1ccc(N2C(=S)N(c3ccc(C#N)c(C(F)(F)F)c3)C(=O)C2(C)C)cc1F [Enzalutamide] + C=C(F)C(=O)N1CCN(c2nc(OC[C@@H]3CCCN3C)nc3c2CCN(c2cccc4cccc(Cl)c24)C3)C[C@@H]1CC#N [adagrasib] | 7.72 | 4.58
COc1cc([C@@H]2c3cc4c(cc3[C@@H](O[C@@H]3O[C@@H]5CO[C@@H](C)O[C@H]5[C@H](O)[C@H]3O)[C@H]3COC(=O)[C@H]23)OCO4)cc(OC)c1O [Etoposide] + C=C(F)C(=O)N1CCN(c2nc(OC[C@@H]3CCCN3C)nc3c2CCN(c2cccc4cccc(Cl)c24)C3)C[C@@H]1CC#N [adagrasib] | -0.11 | 2.33
CO[C@H]1C[C@@H]2CC[C@@H](C)[C@@](O)(O2)C(=O)C(=O)N2CCCC[C@H]2C(=O)O[C@H]([C@H](C)C[C@@H]2CC[C@@H](OCCO)[C@H](OC)C2)CC(=O)[C@H](C)/C=C(\C)[C@@H](O)[C@@H](OC)C(=O)[C@H](C)C[C@H](C)/C=C/C=C/C=C/1C [Everolimus] + C=C(F)C(=O)N1CCN(c2nc(OC[C@@H]3CCCN3C)nc3c2CCN(c2cccc4cccc(Cl)c24)C3)C[C@@H]1CC#N [adagrasib] | 1.15 | -6.03
CN1CC[C@H](c2c(O)cc(O)c3c(=O)cc(-c4ccccc4Cl)oc23)[C@H](O)C1 [Flavopiridol] + C=C(F)C(=O)N1CCN(c2nc(OC[C@@H]3CCCN3C)nc3c2CCN(c2cccc4cccc(Cl)c24)C3)C[C@@H]1CC#N [adagrasib] | 2.43 | -0.29
Nc1nc(F)nc2c1ncn2[C@@H]1O[C@H](CO)[C@@H](O)[C@@H]1O [Fludarabine] + C=C(F)C(=O)N1CCN(c2nc(OC[C@@H]3CCCN3C)nc3c2CCN(c2cccc4cccc(Cl)c24)C3)C[C@@H]1CC#N [adagrasib] | 2.57 | -6.95
